Literature values in US20230148652A1, “ORAL PRODUCTS WITH NICOTINE-POLYMER COMPLEX” (NICOVENTURES TRADING LIMITED, priority 2021, published 2023).

Key:
[1] = partition between octanol and water

chemical stability (when isolated) | Compound | solubility | logP [1]
 | CC(/C=C/C=C(C)/C=C/C(=O)O)=C\C=C\C=C(C)\C=C\C=C(C)\C=C\C(=O)O (stereo in doubt) [norbixin, (2E,4E,6E,8E,10E,12E,14E,16E,18E)-4,8,13,17-tetramethylicosa-2,4,6,8,10,12,14,16,18-nonaenedioic acid] | water soluble | 
chemically unstable when isolated | COC(=O)/C=C/C(C)=C\C=C\C(C)=C\C=C\C=C(C)\C=C\C=C(C)\C=C\C(=O)O [bixin, (2E,4E,6E,8E,10E,12E,14E,16Z,18E)-20-methoxy-4,8,13,17-tetramethyl-20-oxoicosa-2,4,6,8,10,12,14,16,18-nonaenoic acid] | soluble in fats and alcohols but insoluble in water | 
 | CC(C)[C@@H]1CC[C@@H](C)C[C@H]1OC(=O)CCC(=O)O [monomenthyl succinate] |  | 3
 | ethyl benzoic acid |  | 2.9
 | isopropyl benzoic acid |  | 3.5
